Active and inactive are the calls of the source.
How the values were obtained:
CHO-K1 = assay: (§1) Counterscreen for antagonists of the orexin 1 receptor (OX1R; HCRTR1): Homogeneous time resolved fluorescence (HTRF)-based cell-based dose response assay to identify antagonists of the parental CHO-K1 cell line. [Related pubchem assays (depositor defined):AID434989, AID435008, AID463079, AID485270, AID492963, AID492964, AID492965, AID493232, AID504699, AID504701]; format: functional; details: Cricetulus griseus
[1] = as §1, with “Fluorescence-based” for “Homogeneous time resolved fluorescence (HTRF)-based”, “cell-based high throughput” for “cell-based”, “CHO” for “CHO-K1”; format: functional
[2] = target: T1, Orexin/Hypocretin receptor type 1 (Homo sapiens, UniProt O43613); assay: Homogeneous Time Resolved Fluorescence (HTRF)-based cell-based high throughput dose response assay for antagonists of the orexin 1 receptor (OX1R; HCRTR1). [Related pubchem assays (depositor defined):AID434989, AID435008, AID463079, AID485270, AID492963, AID492964, AID492965, AID493232, AID504717, AID504718]; format: functional
T1 sequence (O43613 whole entry): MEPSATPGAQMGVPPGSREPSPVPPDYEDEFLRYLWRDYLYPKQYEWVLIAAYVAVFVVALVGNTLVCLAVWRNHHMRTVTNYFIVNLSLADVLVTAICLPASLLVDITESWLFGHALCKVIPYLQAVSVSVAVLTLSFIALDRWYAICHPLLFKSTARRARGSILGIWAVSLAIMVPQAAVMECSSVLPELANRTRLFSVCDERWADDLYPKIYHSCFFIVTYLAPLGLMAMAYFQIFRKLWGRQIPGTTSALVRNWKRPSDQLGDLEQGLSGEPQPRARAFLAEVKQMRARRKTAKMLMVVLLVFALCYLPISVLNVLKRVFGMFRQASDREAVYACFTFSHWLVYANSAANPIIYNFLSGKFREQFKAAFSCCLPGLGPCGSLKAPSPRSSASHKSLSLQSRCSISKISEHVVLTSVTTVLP

[3] = target: T1, Orexin/Hypocretin receptor type 1; assay: Fluorescence-based cell-based high throughput dose response assay for antagonists of the orexin 1 receptor (OX1R; HCRTR1). [Related pubchem assays (depositor defined):AID434989, AID435008, AID463079, AID485270, AID492963, AID492964, AID492965, AID493232, AID504717, AID504718]; format: functional
[4] = Luminescence Cell-Based Dose Retest to Confirm Inhibitors of Cancer Stem Cells. [Related pubchem assays (depositor defined):AID2717, AID2721]; format: functional; details: Homo sapiens
Beta-galactosidase = Beta-galactosidase (Escherichia coli, UniProt Q8VNN2); assay: beta-galactosidase enzyme inhibitors and activators, dose response, artefact control for CCR6 antagonist project, biochemical, E. coli enzyme, set 3 (AID 504712); format: functional
Sequence of Beta-galactosidase (Q8VNN2 whole entry, the tested form may be a part): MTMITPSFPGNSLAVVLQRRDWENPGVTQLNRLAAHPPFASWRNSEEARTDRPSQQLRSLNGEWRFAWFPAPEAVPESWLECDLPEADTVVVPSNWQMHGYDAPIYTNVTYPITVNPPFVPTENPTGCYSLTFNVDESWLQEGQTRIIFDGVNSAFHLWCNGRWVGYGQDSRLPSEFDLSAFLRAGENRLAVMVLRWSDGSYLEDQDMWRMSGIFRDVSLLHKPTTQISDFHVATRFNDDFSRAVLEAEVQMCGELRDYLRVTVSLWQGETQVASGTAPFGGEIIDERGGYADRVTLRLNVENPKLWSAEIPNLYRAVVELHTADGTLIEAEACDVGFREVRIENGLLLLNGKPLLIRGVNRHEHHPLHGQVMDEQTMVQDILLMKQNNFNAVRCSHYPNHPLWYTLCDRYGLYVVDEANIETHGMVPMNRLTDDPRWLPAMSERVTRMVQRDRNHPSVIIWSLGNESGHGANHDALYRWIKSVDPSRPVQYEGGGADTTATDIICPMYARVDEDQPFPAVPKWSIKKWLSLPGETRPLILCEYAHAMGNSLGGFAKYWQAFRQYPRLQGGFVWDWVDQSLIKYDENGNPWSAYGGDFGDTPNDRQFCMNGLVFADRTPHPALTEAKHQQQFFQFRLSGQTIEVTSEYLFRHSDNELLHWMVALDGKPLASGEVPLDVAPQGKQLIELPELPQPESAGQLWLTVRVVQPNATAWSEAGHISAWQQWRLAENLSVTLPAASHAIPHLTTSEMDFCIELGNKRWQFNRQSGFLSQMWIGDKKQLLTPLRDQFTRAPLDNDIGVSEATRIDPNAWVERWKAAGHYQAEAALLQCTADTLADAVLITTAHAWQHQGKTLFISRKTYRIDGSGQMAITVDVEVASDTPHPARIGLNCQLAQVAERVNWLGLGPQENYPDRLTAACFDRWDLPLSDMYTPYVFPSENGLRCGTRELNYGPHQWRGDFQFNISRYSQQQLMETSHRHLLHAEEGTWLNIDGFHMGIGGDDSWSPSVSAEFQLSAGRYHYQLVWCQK

Apelin receptor = Apelin receptor (Homo sapiens, UniProt P35414); assay: APJ beta-arrestin recruitment antagonism, SAR follow-up, selectivity assay for CCR6 antagonist project, cell-based, luminescent, enzyme-fragment complementation (AID 588359); format: functional
Sequence of Apelin receptor (P35414 whole entry, the tested form may be a part): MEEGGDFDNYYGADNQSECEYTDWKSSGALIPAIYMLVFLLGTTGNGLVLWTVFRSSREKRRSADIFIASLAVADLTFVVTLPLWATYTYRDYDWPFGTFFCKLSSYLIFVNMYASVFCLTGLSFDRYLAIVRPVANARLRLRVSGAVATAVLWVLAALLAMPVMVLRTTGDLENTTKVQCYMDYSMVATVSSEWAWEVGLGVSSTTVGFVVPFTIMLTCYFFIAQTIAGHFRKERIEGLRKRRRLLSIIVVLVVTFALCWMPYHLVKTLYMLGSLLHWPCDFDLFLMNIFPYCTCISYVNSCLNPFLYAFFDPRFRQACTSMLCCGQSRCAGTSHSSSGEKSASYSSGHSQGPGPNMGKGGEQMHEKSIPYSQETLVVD

[5] = insulin promoter down-regulators in MIN6 cells, imaging, high-content screening, mouse beta cells (AID 1628); format: functional
[6] = cytotoxicity in MIN6 insulinoma cells, dose response, cytotoxicity control, cell-based, mouse insulinoma (AID 2122); format: functional;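 further: confirmatory high-throughput counterscreen run to flag cytotoxic compounds; mouse MIN-6 beta cells carrying an insulin promoter eGFP reporter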
Exodeoxyribonuclease V = Exodeoxyribonuclease V (Escherichia coli (strain K12), UniProt P04993+P07648+P08394); assay: E. coli RecBCD inhibitors, dose response, counter-screen for AddAB inhibitor project, absorbance, V66 E. coli, mutant T4 phage (AID 492957); format: functional, cell-based, Escherichia coli str. K-12 substr. MG1655
Sequence of Exodeoxyribonuclease V (P04993 whole entry): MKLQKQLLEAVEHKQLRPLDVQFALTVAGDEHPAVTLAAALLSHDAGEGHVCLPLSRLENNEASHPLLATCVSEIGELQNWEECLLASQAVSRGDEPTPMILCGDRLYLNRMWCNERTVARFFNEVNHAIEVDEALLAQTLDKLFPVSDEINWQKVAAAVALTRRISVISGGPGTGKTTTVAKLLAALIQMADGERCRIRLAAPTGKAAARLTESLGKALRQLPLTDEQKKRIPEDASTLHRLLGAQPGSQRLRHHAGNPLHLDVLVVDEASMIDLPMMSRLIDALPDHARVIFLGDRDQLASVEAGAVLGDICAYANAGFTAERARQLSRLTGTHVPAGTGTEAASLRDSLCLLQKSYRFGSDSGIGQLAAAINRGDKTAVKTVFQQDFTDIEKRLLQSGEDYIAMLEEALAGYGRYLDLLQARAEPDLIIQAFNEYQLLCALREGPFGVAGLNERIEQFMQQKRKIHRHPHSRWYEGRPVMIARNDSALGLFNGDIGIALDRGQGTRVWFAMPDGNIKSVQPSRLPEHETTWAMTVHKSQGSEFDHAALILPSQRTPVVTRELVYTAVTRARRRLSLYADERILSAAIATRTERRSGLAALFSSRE
Sequence of Exodeoxyribonuclease V (P07648 whole entry): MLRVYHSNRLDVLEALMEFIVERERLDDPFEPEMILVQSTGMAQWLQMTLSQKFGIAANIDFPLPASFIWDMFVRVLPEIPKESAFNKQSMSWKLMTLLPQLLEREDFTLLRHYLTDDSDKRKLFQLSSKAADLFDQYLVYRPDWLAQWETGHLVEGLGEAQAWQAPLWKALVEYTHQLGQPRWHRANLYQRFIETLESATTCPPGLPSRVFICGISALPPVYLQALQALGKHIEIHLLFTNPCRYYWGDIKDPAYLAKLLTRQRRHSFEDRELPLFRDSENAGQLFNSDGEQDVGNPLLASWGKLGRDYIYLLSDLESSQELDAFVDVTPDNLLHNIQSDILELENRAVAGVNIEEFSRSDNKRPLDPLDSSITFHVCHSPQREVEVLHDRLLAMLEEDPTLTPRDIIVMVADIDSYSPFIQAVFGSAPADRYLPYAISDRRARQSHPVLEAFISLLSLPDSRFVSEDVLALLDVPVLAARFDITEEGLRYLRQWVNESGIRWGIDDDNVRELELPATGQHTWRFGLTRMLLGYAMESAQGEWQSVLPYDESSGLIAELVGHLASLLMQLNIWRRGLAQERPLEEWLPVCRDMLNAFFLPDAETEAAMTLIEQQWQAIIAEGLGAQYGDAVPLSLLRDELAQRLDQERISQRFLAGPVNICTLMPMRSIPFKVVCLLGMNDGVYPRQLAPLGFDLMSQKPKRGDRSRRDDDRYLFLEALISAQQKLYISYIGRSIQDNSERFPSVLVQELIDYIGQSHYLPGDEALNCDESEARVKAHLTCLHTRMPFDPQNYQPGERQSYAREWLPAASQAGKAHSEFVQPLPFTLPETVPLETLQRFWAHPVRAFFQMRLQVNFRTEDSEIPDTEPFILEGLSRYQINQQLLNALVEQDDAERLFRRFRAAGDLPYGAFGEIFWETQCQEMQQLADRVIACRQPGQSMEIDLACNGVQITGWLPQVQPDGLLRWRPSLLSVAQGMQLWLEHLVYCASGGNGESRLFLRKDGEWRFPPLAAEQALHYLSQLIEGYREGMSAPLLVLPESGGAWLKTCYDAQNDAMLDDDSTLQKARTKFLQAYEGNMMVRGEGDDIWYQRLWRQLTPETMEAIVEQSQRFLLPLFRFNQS
Sequence of Exodeoxyribonuclease V (P08394 whole entry): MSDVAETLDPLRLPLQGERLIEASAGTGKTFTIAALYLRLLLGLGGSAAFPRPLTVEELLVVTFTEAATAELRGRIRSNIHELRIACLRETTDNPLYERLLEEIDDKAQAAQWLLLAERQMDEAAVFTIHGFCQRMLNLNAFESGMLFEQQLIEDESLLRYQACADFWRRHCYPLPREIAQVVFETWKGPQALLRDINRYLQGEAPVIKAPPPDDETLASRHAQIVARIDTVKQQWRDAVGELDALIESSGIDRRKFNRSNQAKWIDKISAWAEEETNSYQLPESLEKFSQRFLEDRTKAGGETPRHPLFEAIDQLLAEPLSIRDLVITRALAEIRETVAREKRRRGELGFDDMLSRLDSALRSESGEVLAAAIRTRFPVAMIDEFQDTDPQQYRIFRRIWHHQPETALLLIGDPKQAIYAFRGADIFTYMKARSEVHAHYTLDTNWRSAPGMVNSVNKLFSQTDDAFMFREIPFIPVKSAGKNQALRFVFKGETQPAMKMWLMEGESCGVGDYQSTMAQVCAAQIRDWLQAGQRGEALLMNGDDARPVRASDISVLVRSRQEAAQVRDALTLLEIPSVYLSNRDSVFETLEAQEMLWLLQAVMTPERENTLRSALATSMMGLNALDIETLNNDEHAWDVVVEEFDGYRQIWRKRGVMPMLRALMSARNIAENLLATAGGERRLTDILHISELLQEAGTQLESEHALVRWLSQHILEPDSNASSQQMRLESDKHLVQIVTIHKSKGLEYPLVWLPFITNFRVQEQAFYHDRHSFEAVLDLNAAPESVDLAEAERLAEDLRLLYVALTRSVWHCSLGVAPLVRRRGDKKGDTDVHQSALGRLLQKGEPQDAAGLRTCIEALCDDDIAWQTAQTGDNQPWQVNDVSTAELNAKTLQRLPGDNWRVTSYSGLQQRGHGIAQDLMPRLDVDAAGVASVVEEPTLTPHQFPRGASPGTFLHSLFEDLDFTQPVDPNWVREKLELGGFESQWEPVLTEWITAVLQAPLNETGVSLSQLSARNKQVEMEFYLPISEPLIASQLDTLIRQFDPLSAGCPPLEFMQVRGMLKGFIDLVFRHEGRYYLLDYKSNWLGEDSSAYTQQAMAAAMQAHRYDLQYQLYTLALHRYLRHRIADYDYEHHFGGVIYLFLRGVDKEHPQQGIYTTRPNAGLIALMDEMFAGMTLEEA

Nonstructural protein 1 = Nonstructural protein 1 (Influenza A virus, UniProt Q194T2); format: functional, Influenza A virus (A/California/07/2009(H1N1))
Sequence of Nonstructural protein 1 (Q194T2 whole entry): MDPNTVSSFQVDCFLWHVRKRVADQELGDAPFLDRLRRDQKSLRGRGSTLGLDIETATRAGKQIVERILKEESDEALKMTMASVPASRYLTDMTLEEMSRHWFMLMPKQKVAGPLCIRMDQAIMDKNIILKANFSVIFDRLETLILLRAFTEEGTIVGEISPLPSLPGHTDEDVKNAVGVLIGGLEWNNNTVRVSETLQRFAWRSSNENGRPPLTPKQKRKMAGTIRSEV

[7] = Counterscreen for AddAB inhibitors: absorbance-based bacterial cell-based high throughput dose response assay for inhibitors of bacterial viability. [Related pubchem assays (depositor defined):AID435030, AID449728, AID449731, AID488942, AID488955, AID488956]; format: functional
BJ = assay: cytotoxicity toward Ras-transformed BJeLR fibroblasts, dose response, cell-based, alamar blue fluorescence, cherrypicked samples (AID 2631); format: functional; details: Homo sapiens;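 further: confirmatory dose-response assay in RAS-dependent BJ fibroblasts engineered with TERT, LT and ST, with cytotoxicity read by fluorescence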
INS1 = assay: beta cell apoptosis inhibitors, cytokine rescue, dose response, luminescence, retest (AID 449756); format: functional, cell-based; details: Rattus norvegicus;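 further: cell death triggered by IL-1 beta plus TNF-alpha plus IFN-gamma mixture; protective hits raise ATP signal compared with cytokine alone wells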

Q: With `Cc1ccc(O)c(NC(=O)c2cc(-c3ccccc3Cl)on2)c1` as the compound, how does the IC50 (CHO-K1) read?
A: > 66.3 µM (inactive)

Q: And the IC50 [1]?
A: > 49.8 µM (inactive)

Q: What about the IC50 [2] of the same compound?
A: 7.23 µM (active)

Q: What about the IC50 [3] of the same compound?
A: > 49.8 µM (inactive)

Q: With `Cc1sc2nc(SCCN(C)C)n(-c3ccccc3)c(=O)c2c1-c1ccc(F)cc1` as the compound, how does the AC50 [4] read?
A: 7.17 µM (active)

Q: And the IC50 (Beta-galactosidase)?
A: > 66.6 µM (inactive)

Q: And the IC50 (Apelin receptor)?
A: 30.9 µM (inactive)

Q: Which IC50 [5] does the source give for `Cc1nn(C)c(C)c1CNC(=O)c1cc2n(n1)C(C(F)(F)F)CC(c1cccs1)N2` (stereo not given) here?
A: 1.94 µM (active)

Q: What about the IC50 [6] of the same compound?
A: 1.11 µM (active)

Q: What does the source list for `COc1cccc(/C=N/Nc2ncnc(Cl)c2N)c1O`?
A: IC50 (Exodeoxyribonuclease V): > 119 µM (inactive); AC50 [4]: 2.96 µM (active); IC50 (Nonstructural protein 1): 3.65 µM (active); IC50 [7]: > 119 µM (inactive); EC50 (BJ): 1.27 µM (inconclusive); AC50 (INS1): 1.02 µM (active)
